Measured values reported in patent US10918687B2, “Kava derived therapeutic compounds and methods of use thereof” (KUALITY HERBCEUTICS LLC, priority 2013, dated 2021).

Key:
[1] = A/J mouse safety upon 17-week continuous exposure of (+)-DHM; type: in vivo, A/J mice; settings: for adverse effects: 0.5 mg/g of diet (at least 10x minimum effective dose)
Experimental: After one-week acclimation, A/J mice were weighed and randomized into two groups (five mice in the control group and ten mice in (+)-DHM treatment group). Mice in the control group were maintained on the AIN-93 G diet for three weeks and then switched to the AIN-93 M diet until the end of Week 17. Mice in (+)-DHM treatment group were maintained on the same diet as the control group with supplementation of (+)-DHM at a dose of 0.5 mg/g of diet. Food was replenished twice weekly. Food intake was monitored twice a week and mouse bodyweight was monitored once a week. At the end of Week 8, serum samples from each mouse were prepared from blood collected via a facial vein and analyzed for a panel of clinical chemistry analytes. At the end of Week 17, mice were euthanized by CO2 overdosing. Blood was collected with one portion analyzed for hematology and the other portion processed for serum and analyzed for a full panel of clinical chemistry analytes. Individual animal body weights and major organ weights (lung, liver, heart, spleen and kidney) were recorded. Lung, liver, heart, spleen, kidney and pancreas were fixed in 10% neutral-buffered formalin solution.

[2] = system: NNK-induced DNA damage in liver tissues; assay: NNK-induced DNA damage in A/J mouse liver tissues; type: in vivo, A/J mice; settings: diet Day 1-Day 7, 24 h after NNK; data not shown
Experimental: DNA was isolated and purified from ˜100 mg lung and liver tissues of each mouse, following Genomic-tip 100/G protocol from Qiagen Corp (Valencia, Calif.).
After one-week acclimation, A/J mice were weighed and randomized into ten groups (3 mice per group except for Group 1 that had one mouse as the negative control) and switched to the AIN-93 G diet on a date defined as Day 1. Mice in Groups 1 and 2 were given the AIN-93 G diet during Day 1-Day 7. Mice in Groups 3-10 were given the AIN-93 G diets supplemented with kava, (+)-DHK, (+)-DHM, and synthetic (±)-DHM respectively at the specified dose during Day 1-Day 7. Mice in Groups 2-10 were given a single dose of NNK at 100 mg/kg bodyweight in saline (0.1 ml) via i.p. injection at the beginning of Day 7 while the mouse in Group 1 was given saline (0.1 ml). Mice were euthanized by CO2 overdosing 24 h after NNK treatment, and lung and liver tissues were collected and stored at −80° C. until DNA isolation. A set of NNK-induced DNA adducts (O^6-mG, 7-mG, 7-pobG, O^6-pobdG, O^2-pobdT, 7-phbG, O^6-phbdG and O^2-phbdT) were quantified by following reported procedures (Leitzman, P et al. (2014) Cancer. Prev. Res., 7: 86-96; Peterson, L A et al. (2013) Chem. Res. Toxicol. 26: 1464-1473; Upadhyaya, P et al. (2008) Chem. Res. Toxicol. 21: 1468-1476). For 7-mG isolation, DNA (30 μg) was dissolved in 10 mM sodium phosphate buffer, pH 7 (500 μL) and spiked with [^13C1^2H3]7-mG (10 pmol). Samples were heated to 80° C. for 30 minutes. An aliquot (100 μL) was removed for 7-mG analysis.

[3] = system: BaP-induced DNA damage in hepe1c1c7 cells; assay: BaP-induced DNA damage in hepe1c1c7 cells; type: cell-based, rodent; settings: 1, 5 and 25 μM co-treated with BaP (0.3 μM) for 3 hours
Excerpt: (§1) The goal of this study was to explore the potential scope of dihydromethysticin in blocking/reducing different carcinogen-induced DNA damage and detoxifying such carcinogens. […] Benzo(a)pyrene (BaP) is a representative polyaromatic hydrocarbon-based carcinogen in cigarette smoke and is present in various industrial/motor exhaust/waste. BaP is a human carcinogen to lung, stomach and other tissues. A rodent liver cancer cell line was used in these studies. Briefly, the hepe1c1c7 cells were co-treated with dihydromethysticin (1, 5, and 25 μM) and PhIP (10 μM) for 24 hours with DNA isolated and PhIP-based DNA damage quantified (FIG. 28A). […] Similarly the cells were co-treated with dihydromethysticin (1, 5, and 25 μM) and BaP (0.3 μM) for 3 hours with DNA isolated and BaP-based DNA damage quantified (FIG. 28B).

[4] = system: human lung H2009 cancer cell line tumors; assay: H2009 human lung cancer xenograft in nude mice; type: in vivo; settings: 40 mg/kg bodyweight via i.p. injection or oral gavage
Experimental: Typically human origin lung cancer cells were cultured and mixed with Metrigel. 2-5×10^6 cells were inoculated in the nude mice. Mice were randomized into different groups when the tumor size reached ˜50 mm^3. Treated mice received drug candidate at a dose of 40 mg/kg bodyweight via i.p. injection or oral gavage. The tumor size was monitored once or twice a week until 5 weeks since the treatment or when the size of the tumors >1000 mm^3. Mouse bodyweight was monitored once a week. Mice were CO^2 euthanized and the tumors were collected and weighed. Major organs were grossly examined and weighed as well.

[5] = system: PhIP-induced DNA damage in hepe1c1c7 cells; assay: PhIP-induced DNA damage in hepe1c1c7 cells; type: cell-based, rodent; settings: 1, 5 and 25 μM co-treated with PhIP (10 μM) for 24 hours
Excerpt: as §1

[6] = system: APAP-induced hepatotoxicity; assay: Short-term combination study: potentiation of APAP-induced hepatotoxicity in C57BL/6 mice; settings: 3-day daily gavage, DHM 37.5 mg/kg, FKB 11.5 mg/kg
Excerpt: Six week-old female C57BL/6J mice (Jackson Laboratories, ME) were housed at specific pathogen-free animal facilities of Research Animal Resources, University of Minnesota with free access to standard rodent food and water. All mice were acclimatized for one week before being used for experiments. Mice were gavaged with dose formulations at the indicated doses and times, euthanized by CO2 overdosing with necropsy performed by experienced researchers.
The short-term combination studies were designed to evaluate the potential synergism of kava and its chemicals to APAP induced hepatotoxicity. C57BL/6 mice were randomized (8-15 mice per group) and were administered with PEG-400 (200 μL), kava (500 mg/kg bodyweight), DHM or FKA and FKB in PEG-400 (200 μL) at the indicated doses daily via oral gavage for two days. On the third day, mice in the respective groups were co-administered with APAP (800 mg/kg bodyweight) in PEG-400 (200 μL). Bodyweight was recorded daily. Necropsies were performed 24 hours after the last gavage by experienced researchers. Serum from each mouse was analyzed for ALT and AST. Livers were collected and preserved in 10% neutral buffered formalin. Appropriately fixed tissues were processed into paraffin blocks using standard histological techniques, and 5 μm sections were cut and stained with hematoxylin and eosin (H&E).
The clinical chemistry data were reported as mean±SD (n=4-15). […] One-way analysis of variance (ANOVA) was used to compare the means among different groups in the short-term combination studies. Dunnett's test was used for comparisons of APAP and other treatment groups when the one-way ANOVA analysis was statistically significant. p-value≤0.05 was considered statistically significant. All analyses were conducted in GraphPad Prism 4 (GraphPad Software, Inc. La Jolla, Calif.).

[7] = 0.5 mg/g of diet, Week 17, data not shown

SMILES | adverse effects ([1]; 17 weeks) | food intake vs control ([1]; 0.5 mg/g of diet, 17 weeks) | weekly bodyweight vs control ([1]; 0.5 mg/g of diet, 17 weeks) | full-panel hematology vs control ([1]; 0.5 mg/g of diet, Week 17) | histopathological examination of liver, lung, heart, kidney, spleen and pancreas vs control [1, 7] | serum osmolality and anion gap vs control [1, 7] | final bodyweight and relative weights of five organs vs control ([1]; 0.5 mg/g of diet, Week 17, except for the lung tissues) | relative lung weight vs control ([1]; 0.5 mg/g of diet, Week 17, excluding one control mouse with lung hemorrhage (p=0.10)) | serum clinical chemistry (ALP, ALT, AST, BUN, albumin, total bilirubin, CK, glucose, cholesterol, amylase) vs control ([1]; 0.5 mg/g of diet, end of Week 8) | serum clinical chemistry vs control ([1]; 0.5 mg/g of diet, end of Week 17) | effect on NNK-induced DNA damage in the liver tissues [2] | BaP-induced DNA damage [3] | tumor volume relative to control group [4] | PhIP-induced DNA damage [5] | serum ALT and AST when combined with APAP, vs APAP alone ([6]; APAP 800 mg/kg on third day, FKA and FKB 1, 2, 4 times abundance) | serum ALT and AST, treatment alone (without APAP) ([6]; kava 500 mg/kg, FKA and FKB at 1, 2 and 4 times their abundance in kava 500 mg/kg)
COC1=CC(=O)O[C@@H](CCc2ccc3c(c2)OCO3)C1 [(+)-DHM, (+)-dihydromethysticin] | did not present with any adverse effects | similar | none of the differences were statistically significant | None of these parameters were significantly different | no significant differences | no differences | not significantly different | no significant differences | No significant differences | no significant differences | none of the treatments had significant effects | – | – | – | – | –
COC1=CC(=O)O[C@@H](CCc2ccc3c(c2)OCO3)C1 [DHM, dihydromethysticin] | no adverse effects | – | – | – | – | – | – | – | – | – | – | effectively and dose-dependently reduced | significantly reduced | effectively and dose-dependently reduced | no effect | no effect
